Assay results reported in US11000033B2, “Ketone or oxime compound, and herbicide” (NISSAN CHEMICAL CORPORATION, priority 2014, dated 2021).

Tests used:
Assay type in all cases: in vivo
Apera spica-venti [1] = assay: Test Example 5: herbicidal effect by foliage application, plastic box (symbol L); conditions: 320 g/ha, 3 weeks after application
Summary of the method: (§1)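 After sowing into sterilized diluvial soil and growing two weeks under glass at 25° C. to 30° C., seedlings receive a uniform foliar spray of diluted emulsion. Damage is judged visually three weeks on.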

[2] = system: Echinochloa crus-galli var. crus-galli; assay: Test Example 5: herbicidal effect by foliage application, plastic box (symbol H); conditions: 320 g/ha, 3 weeks after application
Summary of the method: as §1

Veronica persica = assay: Test Example 4: herbicidal effect by soil treatment (symbol R); conditions: application herbicide amount 320 g/ha
Summary of the method: (§2)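 Seeds were sown in sterilized diluvial soil, covered with about 1.5 cm of soil, and the soil surface was sprayed with a water-diluted emulsion of the compound at a predetermined rate. Plants grew in a greenhouse at 25° C. to 30° C.; effects were scored visually 3 weeks after application.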

Leptochloa chinensis = assay: Test Example 3: herbicidal effect by foliage application, Wagner pot (symbol D); conditions: application herbicide amount 320 g/ha
Summary of the method: (§3)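 Seeds sown in alluvial soil kept under 0.1–0.5 cm water, greenhouse 25–30 °C; 14 d growth. Leaves treated by small sprayer with water-diluted emulsion at a predetermined rate. Effect graded by set scale, 3 weeks.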

Abutilon theophrasti [3] = assay: Test Example 5: herbicidal effect by foliage application, plastic box (symbol M); conditions: 320 g/ha, 3 weeks after application
Summary of the method: as §1

Digitaria ciliaris = assay: Test Example 4: herbicidal effect by soil treatment (symbol F); conditions: application herbicide amount 320 g/ha
Summary of the method: as §2

Avena fatua = assay: Test Example 5: herbicidal effect by foliage application, plastic box (symbol I); conditions: 320 g/ha, 3 weeks after application
Summary of the method: as §1

beet = assay: Test Example 5: effect on crop by foliage application, plastic box (symbol f); conditions: 320 g/ha, 3 weeks after application
Summary of the method: (§4)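 A greenhouse held between 25° C. and 30° C. was used to grow plants sown spot-wise, beneath ~1.5 cm of soil, in boxes of sterilized diluvial soil.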

Galium spurium = assay: Test Example 4: herbicidal effect by soil treatment (symbol Q); conditions: application herbicide amount 320 g/ha
Summary of the method: as §2

rice plant = assay: Test Example 5: effect on crop by foliage application, plastic box (symbol b); conditions: 320 g/ha, 3 weeks after application
Summary of the method: as §4

Setaria viridis [4] = assay: Test Example 5: herbicidal effect by foliage application, plastic box (symbol G); conditions: 320 g/ha, 3 weeks after application
Summary of the method: as §1

Setaria viridis [5] = assay: Test Example 4: herbicidal effect by soil treatment (symbol G); conditions: application herbicide amount 320 g/ha
Summary of the method: as §2

transplanted rice plant = assay: Test Example 1: effect on crop, application before weed generation in submerged conditions (symbol a); conditions: application herbicide amount 320 g/ha
Summary of the method: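 Alluvial soil pots flooded to 4 cm water, sown with Echinochloa oryzacola, Scirpus juncoides and Monochoria vaginalis, then transplanted with 2.5 leaf stage rice seedlings; pre-emergence application. Greenhouse 25° C. to 30° C.; scored 0–5 by herbicidal ratio 3 weeks after application.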

Lolium multiflorum Lam. = assay: Test Example 4: herbicidal effect by soil treatment (symbol K); conditions: application herbicide amount 320 g/ha
Summary of the method: as §2

[6] = system: Echinochloa crus-galli var. crus-galli; assay: Test Example 3: herbicidal effect by foliage application, Wagner pot (symbol H); conditions: application herbicide amount 320 g/ha
Summary of the method: as §3

Stellaria media [7] = assay: Test Example 5: herbicidal effect by foliage application, plastic box (symbol P); conditions: 320 g/ha, 3 weeks after application
Summary of the method: as §1

Stellaria media [8] = assay: Test Example 4: herbicidal effect by soil treatment (symbol P); conditions: application herbicide amount 320 g/ha
Summary of the method: as §2

Apera spica-venti [9] = assay: Test Example 4: herbicidal effect by soil treatment (symbol L); conditions: application herbicide amount 320 g/ha
Summary of the method: as §2

rapeseed = assay: Test Example 5: effect on crop by foliage application, plastic box (symbol g); conditions: 320 g/ha, 3 weeks after application
Summary of the method: as §4

Amaranthus retroflexus = assay: Test Example 4: herbicidal effect by soil treatment (symbol N); conditions: application herbicide amount 320 g/ha
Summary of the method: as §2

Abutilon theophrasti [10] = assay: Test Example 4: herbicidal effect by soil treatment (symbol M); conditions: application herbicide amount 320 g/ha
Summary of the method: as §2

[11] = system: directly sowed rice plant; assay: Test Example 3: effect on crop by foliage application, Wagner pot (symbol b); conditions: application herbicide amount 320 g/ha
Summary of the method: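 Greenhouse culture at 25–30 °C of seeded rice, Cyperus difformis, Leptochloa chinensis and Echinochloa crus-galli var. crus-galli, in alluvial soil held under 0.1–0.5 cm of water in a Wagner pot.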

Structure (SMILES)	L: Apera spica-venti, herbicidal effect (criteria of Test Example 1) (Apera spica-venti [1])	H: Echinochloa crus-galli var. crus-galli, herbicidal effect (criteria of Test Example 1) [2]	herbicidal effect on D (Leptochloa chinensis), grade 0-5 (Leptochloa chinensis)	M: Abutilon theophrasti, herbicidal effect (criteria of Test Example 1) (Abutilon theophrasti [3])	I: Avena fatua, herbicidal effect (criteria of Test Example 1) (Avena fatua)	f: beet, effect on crop (criteria of Test Example 1) (beet)	b: directly sowed rice plant, effect on crop (criteria of Test Example 1) (rice plant)	G: Setaria viridis, herbicidal effect (criteria of Test Example 1) (Setaria viridis [4])	Effect grade on crop, a: transplanted rice plant (transplanted rice plant)	herbicidal effect on H (Echinochloa crus-galli var. crus-galli), grade 0-5 [6]	P: Stellaria media, herbicidal effect (criteria of Test Example 1) (Stellaria media [7])	g: rapeseed, effect on crop (criteria of Test Example 1) (rapeseed)	effect on crop b (directly sowed rice plant), grade 0-5 [11]	Herbicidal effect grade, R: Veronica persica (Veronica persica)	Herbicidal effect grade, F: Digitaria ciliaris (Digitaria ciliaris)	Herbicidal effect grade, Q: Galium spurium (Galium spurium)	Herbicidal effect grade, G: Setaria viridis (Setaria viridis [5])	Herbicidal effect grade, K: Lolium multiflorum Lam. (Lolium multiflorum Lam.)	Herbicidal effect grade, P: Stellaria media (Stellaria media [8])	Herbicidal effect grade, L: Apera spica-venti (Apera spica-venti [9])	also measured
CON=C(C)CC1CC(OC(=O)N2CCOCC2)=C(c2c(C)cc(-c3ccc(Cl)cc3)cc2C)C1=O (mixture of isomers) [6-062]	5 (Herbicidal ratio of 90% or more (almost completely withered))	5 (Herbicidal ratio of 90% or more (almost completely withered))	5 (Herbicidal ratio of 90% or more (almost completely withered))	3 (Herbicidal ratio of 40% or higher and lower than 70%)	5 (Herbicidal ratio of 90% or more (almost completely withered))	0 (Herbicidal ratio of 5% or lower (almost no effect))	5 (Herbicidal ratio of 90% or more (almost completely withered))	5 (Herbicidal ratio of 90% or more (almost completely withered))	5 (Herbicidal ratio of 90% or more (almost completely withered))	5 (Herbicidal ratio of 90% or more (almost completely withered))	3 (Herbicidal ratio of 40% or higher and lower than 70%)	4 (Herbicidal ratio of 70% or higher and lower than 90%)	5 (Herbicidal ratio of 90% or more (almost completely withered))								R: Veronica persica, herbicidal effect grade (Veronica persica): 3 (Herbicidal ratio of 40% or higher and lower than 70%); F: Digitaria ciliaris, herbicidal effect grade (Digitaria ciliaris): 3 (Herbicidal ratio of 40% or higher and lower than 70%); Q: Galium spurium, herbicidal effect grade (Galium spurium): 0 (Herbicidal ratio of 5% or lower (almost no effect)); G: Setaria viridis, herbicidal effect grade (Setaria viridis [5]): 5 (Herbicidal ratio of 90% or more (almost completely withered)); K: Lolium multiflorum Lam., herbicidal effect grade (Lolium multiflorum Lam.): 0 (Herbicidal ratio of 5% or lower (almost no effect)); P: Stellaria media, herbicidal effect grade (Stellaria media [8]): 3 (Herbicidal ratio of 40% or higher and lower than 70%); L: Apera spica-venti, herbicidal effect grade (Apera spica-venti [9]): 5 (Herbicidal ratio of 90% or more (almost completely withered)); N: Amaranthus retroflexus, herbicidal effect grade (Amaranthus retroflexus): 0 (Herbicidal ratio of 5% or lower (almost no effect)); M: Abutilon theophrasti, herbicidal effect grade (Abutilon theophrasti [10]): 0 (Herbicidal ratio of 5% or lower (almost no effect))
CC#Cc1cc(C)c(C2=C(O)CC(CC(C)=O)C2=O)c(C)c1 (stereo not drawn) [7-010]	5 (Herbicidal ratio of 90% or more (almost completely withered))	5 (Herbicidal ratio of 90% or more (almost completely withered))	5 (Herbicidal ratio of 90% or more (almost completely withered))	3 (Herbicidal ratio of 40% or higher and lower than 70%)	4 (Herbicidal ratio of 70% or higher and lower than 90%)	0 (Herbicidal ratio of 5% or lower (almost no effect))	5 (Herbicidal ratio of 90% or more (almost completely withered))	5 (Herbicidal ratio of 90% or more (almost completely withered))	5 (Herbicidal ratio of 90% or more (almost completely withered))	5 (Herbicidal ratio of 90% or more (almost completely withered))	0 (Herbicidal ratio of 5% or lower (almost no effect))	4 (Herbicidal ratio of 70% or higher and lower than 90%)	5 (Herbicidal ratio of 90% or more (almost completely withered))	3 (Herbicidal ratio of 40% or higher and lower than 70%)	5 (Herbicidal ratio of 90% or more (almost completely withered))	0 (Herbicidal ratio of 5% or lower (almost no effect))	5 (Herbicidal ratio of 90% or more (almost completely withered))	5 (Herbicidal ratio of 90% or more (almost completely withered))	0 (Herbicidal ratio of 5% or lower (almost no effect))	5 (Herbicidal ratio of 90% or more (almost completely withered))	Herbicidal effect grade, N: Amaranthus retroflexus (Amaranthus retroflexus): 0 (Herbicidal ratio of 5% or lower (almost no effect)); Herbicidal effect grade, M: Abutilon theophrasti (Abutilon theophrasti [10]): 4 (Herbicidal ratio of 70% or higher and lower than 90%)
CC(=O)CC1CC(O)=C(c2c(C)cc(C)cc2Br)C1=O (stereo not drawn) [7-011]	3 (Herbicidal ratio of 40% or higher and lower than 70%)	5 (Herbicidal ratio of 90% or more (almost completely withered))	4 (Herbicidal ratio of 70% or higher and lower than 90%)	4 (Herbicidal ratio of 70% or higher and lower than 90%)	3 (Herbicidal ratio of 40% or higher and lower than 70%)	0 (Herbicidal ratio of 5% or lower (almost no effect))	5 (Herbicidal ratio of 90% or more (almost completely withered))	3 (Herbicidal ratio of 40% or higher and lower than 70%)	1 (Herbicidal ratio of 5% or higher and lower than 20%)	5 (Herbicidal ratio of 90% or more (almost completely withered))	3 (Herbicidal ratio of 40% or higher and lower than 70%)	4 (Herbicidal ratio of 70% or higher and lower than 90%)	5 (Herbicidal ratio of 90% or more (almost completely withered))	0 (Herbicidal ratio of 5% or lower (almost no effect))	5 (Herbicidal ratio of 90% or more (almost completely withered))	0 (Herbicidal ratio of 5% or lower (almost no effect))	0 (Herbicidal ratio of 5% or lower (almost no effect))	4 (Herbicidal ratio of 70% or higher and lower than 90%)	0 (Herbicidal ratio of 5% or lower (almost no effect))	3 (Herbicidal ratio of 40% or higher and lower than 70%)	Herbicidal effect grade, N: Amaranthus retroflexus (Amaranthus retroflexus): 0 (Herbicidal ratio of 5% or lower (almost no effect)); Herbicidal effect grade, M: Abutilon theophrasti (Abutilon theophrasti [10]): 0 (Herbicidal ratio of 5% or lower (almost no effect))
